Values quoted from earlier work as cited in US9089677B2, “Transcutaneous multimodal delivery system (TMDS)” (The Regents of the University of California, priority 2011, dated 2015).
Where two headings read alike, the source gives them in different places.

Columns and labels:
keratinocytes = conditions: cited from earlier work
fibroblasts = conditions: cited from earlier work
[1] = test system: keratinocyte and fibroblast; conditions: 10% solution; cited from earlier work
[2] = test system: fungal subspecies (e.g., Candida albicans or glabrata as well as Mucor and Aspergillus); conditions: time kill-kinetic; cited from earlier work
[3] = up to 3 mg/kg subcutaneously or intravenously in mice, rats, and monkey; cited from earlier work
[4] = full thickness pig burn wounds; cited from earlier work
[5] = diabetic rodent wounds; cited from earlier work
[6] = test system: normal rat kidney fibroblast (NRK, clone 49F); conditions: NRK fibroblast proliferation; cited from earlier work

NCc1ccc(S(N)(=O)=O)cc1 [MA, mafenide acetate]
lowest dose with reported in vitro toxicity (keratinocytes): 0.85%
lowest dose with reported in vitro toxicity (fibroblasts): 0.1%

O=[N+]([O-])[O-].[Ag+] [silver nitrate]
keratinocyte and fibroblast toxicity [1]: keratinocyte and fibroblast toxicity
antimicrobial activity against fungal subspecies [2]: activity for only C. albicans

becaplermin: recombinant human PDGF (rhPDGF)-BB homodimer
acute toxicity and mortality [3]: no significant acute toxicity or any mortality
granulation tissue formation [4]: significantly increased granulation tissue formation
reepithelialization [4]: did not promote faster reepithelialization
granulation tissue formation [5]: significantly increased granulation tissue formation
reepithelialization [5]: did not promote faster reepithelialization
half maximal activity [6]: 0.5 ng/mL
